The text below walks through data of the OPERA property sets (Mansouri et al. 2018).

Converted amounts (≈) assume the structure as drawn.

Conditions in one series: not given
Compound `CCOP(=O)(OCC)SCS(=O)(=O)CC` registered a logP of 1.98.

The series is the same for the next values; noted with them: 20 °C.
`COc1nn(CSP(=S)(OC)OC)c(=O)s1` yielded a solubility of 619 µM (≈ 187 µg/mL).
The same measure, in the same setting: the same measure for `CCOC(=O)CC(SP(=S)(OC)OC)C(=O)OCC` (configuration not stated): 433 µM (≈ 143 µg/mL); for `CNC(=O)Oc1ccccc1OC(C)C`: 8890 µM (≈ 1860 µg/mL); for `COP(=S)(OC)Oc1ccc([N+](=O)[O-])cc1Cl`: 49.4 µM (≈ 14.7 µg/mL).
On to `COP(=S)(OC)SCSc1ccc(Cl)cc1`, for which the solubility amounted to 5.08 µM (≈ 1.6 µg/mL).
For `COP(=S)(OC)Oc1ccc(SC)c(C)c1`, the solubility worked out at 26.9 µM (≈ 7.5 µg/mL).
Same read-out and setting: the same measure for `COP(=S)(OC)Oc1ccc([N+](=O)[O-])cc1`: 143 µM (≈ 37.7 µg/mL); for `COP(=S)(OC)SCN1C(=O)c2ccccc2C1=O`: 76.9 µM (≈ 24.4 µg/mL).
The compound `CNC(=O)Oc1ccc(N(C)C)c(C)c1` showed a solubility of 4390 µM (≈ 915 µg/mL).
On the same count and under the same terms, next, `CCOP(=S)(OCC)SCn1nnc2ccccc2c1=O`: 30.4 µM (≈ 10.5 µg/mL); `CCOP(=O)(OCC)OC(=CCl)c1ccc(Cl)cc1Cl`: 345 µM (≈ 124 µg/mL).

What is called logP is the decadic logarithm of the partition coefficient of the neutral form, usually between octanol and water. What is called solubility is how much of the substance goes into solution per volume. Low readings indicate little dissolved substance, high ones much dissolved substance.
